Source: ChEMBL document CHEMBL5303573, “Mapping human microbiome drug metabolism by gut bacteria and their genes” (Nature, 2019)

Settings: enterocloster bolteae, 12 h, 2 µM
Description: The drug is tested on Clostridium bolteae strain: ATCCBAA-613 for biotransformation. The drug concentrations were measured before and after a 12-h incubation by liquid-chromatography-coupled mass spectrometry (LC–MS)
With `CC1=C(CC(=O)O)c2cc(F)ccc2/C1=C\c1ccc([S+](C)[O-])cc1` (stereo unspecified) the “Bacterial Biotransformation” value was “Compound NOT metabolized”.
With `CCCCCNC(=N)N/N=C/c1c[nH]c2ccc(OC)cc12.O=C(O)/C=C\C(=O)O` [TEGASEROD MALEATE] the “Bacterial Biotransformation” value was “Compound NOT metabolized”.
For `CCOc1ccc(NC(C)=O)cc1` [PHENACETIN], the “Bacterial Biotransformation” value was “Compound NOT metabolized”.

Test: The drug is tested on Providencia stuartii strain: ATCC25827 for biotransformation. The drug concentrations were measured before and after a 12-h incubation by liquid-chromatography-coupled mass spectrometry (LC–MS)
Settings: 2 µM
For `CC1=C(CC(=O)O)c2cc(F)ccc2/C1=C\c1ccc([S+](C)[O-])cc1` (stereo unspecified), the “Bacterial Biotransformation” value was “Compound NOT metabolized”.
For `CCCCCNC(=N)N/N=C/c1c[nH]c2ccc(OC)cc12.O=C(O)/C=C\C(=O)O` [TEGASEROD MALEATE], the “Bacterial Biotransformation” value was “Compound NOT metabolized”.

Test: The drug is tested on Collinsella aerofaciens strain: ATCC25986 for biotransformation. The drug concentrations were measured before and after a 12-h incubation by liquid-chromatography-coupled mass spectrometry (LC–MS)
Settings: 2 µM
In the case of `CC1=C(CC(=O)O)c2cc(F)ccc2/C1=C\c1ccc([S+](C)[O-])cc1` (stereo unspecified), the “Bacterial Biotransformation” value is reported as “Compound NOT metabolized”.
In the case of `CCCCCNC(=N)N/N=C/c1c[nH]c2ccc(OC)cc12.O=C(O)/C=C\C(=O)O` [TEGASEROD MALEATE], the “Bacterial Biotransformation” value is reported as “Compound NOT metabolized”.
For `CCOc1ccc(NC(C)=O)cc1` [PHENACETIN], the “Bacterial Biotransformation” value was “Compound NOT metabolized”.

Test: The drug is tested on Bacteroides sp. WH2 strain: WH2 for biotransformation. The drug concentrations were measured before and after a 12-h incubation by liquid-chromatography-coupled mass spectrometry (LC–MS)
Settings: bacteroides sp. wh2, 12 h, 2 µM
For `CC1=C(CC(=O)O)c2cc(F)ccc2/C1=C\c1ccc([S+](C)[O-])cc1` (stereo unspecified), the “Bacterial Biotransformation” value was “Compound NOT metabolized”.
For `CCCCCNC(=N)N/N=C/c1c[nH]c2ccc(OC)cc12.O=C(O)/C=C\C(=O)O` [TEGASEROD MALEATE], the “Bacterial Biotransformation” value was “Compound NOT metabolized”.
For `CCOc1ccc(NC(C)=O)cc1` [PHENACETIN], the “Bacterial Biotransformation” value was “Compound NOT metabolized”.

Test: The drug is tested on Collinsella intestinalis strain: DSM13280 for biotransformation. The drug concentrations were measured before and after a 12-h incubation by liquid-chromatography-coupled mass spectrometry (LC–MS)
Settings: 2 µM
With `CC1=C(CC(=O)O)c2cc(F)ccc2/C1=C\c1ccc([S+](C)[O-])cc1` (stereo unspecified) the “Bacterial Biotransformation” value was “Compound NOT metabolized”.
With `CCCCCNC(=N)N/N=C/c1c[nH]c2ccc(OC)cc12.O=C(O)/C=C\C(=O)O` [TEGASEROD MALEATE] the “Bacterial Biotransformation” value was “Compound NOT metabolized”.
For `CCOc1ccc(NC(C)=O)cc1` [PHENACETIN], the “Bacterial Biotransformation” value was “Compound NOT metabolized”.

Test: The drug is tested on Edwardsiella tarda strain: ATCC23685 for biotransformation. The drug concentrations were measured before and after a 12-h incubation by liquid-chromatography-coupled mass spectrometry (LC–MS)
Settings: 2 µM
For `CC1=C(CC(=O)O)c2cc(F)ccc2/C1=C\c1ccc([S+](C)[O-])cc1` (stereo unspecified), the “Bacterial Biotransformation” value was “Compound NOT metabolized”.
In the case of `CCCCCNC(=N)N/N=C/c1c[nH]c2ccc(OC)cc12.O=C(O)/C=C\C(=O)O` [TEGASEROD MALEATE], the “Bacterial Biotransformation” value is reported as “Compound NOT metabolized”.
With `CCOc1ccc(NC(C)=O)cc1` [PHENACETIN] the “Bacterial Biotransformation” value was “Compound NOT metabolized”.

Test: The drug is tested on Bacteroides fragilis strain: HMW610 for biotransformation. The drug concentrations were measured before and after a 12-h incubation by liquid-chromatography-coupled mass spectrometry (LC–MS)
Settings: 2 µM
In the case of `CC1=C(CC(=O)O)c2cc(F)ccc2/C1=C\c1ccc([S+](C)[O-])cc1` (stereo unspecified), the “Bacterial Biotransformation” value is reported as “Compound NOT metabolized”.
For `CCCCCNC(=N)N/N=C/c1c[nH]c2ccc(OC)cc12.O=C(O)/C=C\C(=O)O` [TEGASEROD MALEATE], the “Bacterial Biotransformation” value was “Compound NOT metabolized”.
With `CCOc1ccc(NC(C)=O)cc1` [PHENACETIN] the “Bacterial Biotransformation” value was “Compound NOT metabolized”.

Test: The drug is tested on Bacteroides dorei strain: DSM17855 for biotransformation. The drug concentrations were measured before and after a 12-h incubation by liquid-chromatography-coupled mass spectrometry (LC–MS)
Settings: phocaeicola dorei, 2 µM
In the case of `CC1=C(CC(=O)O)c2cc(F)ccc2/C1=C\c1ccc([S+](C)[O-])cc1` (stereo unspecified), the “Bacterial Biotransformation” value is reported as “Compound NOT metabolized”.
With `CCCCCNC(=N)N/N=C/c1c[nH]c2ccc(OC)cc12.O=C(O)/C=C\C(=O)O` [TEGASEROD MALEATE] the “Bacterial Biotransformation” value was “Compound NOT metabolized”.
With `CCOc1ccc(NC(C)=O)cc1` [PHENACETIN] the “Bacterial Biotransformation” value was “Compound NOT metabolized”.

Test: The drug is tested on Parabacteroides merdae strain: ATCC43184 for biotransformation. The drug concentrations were measured before and after a 12-h incubation by liquid-chromatography-coupled mass spectrometry (LC–MS)
Settings: 2 µM
For `CC1=C(CC(=O)O)c2cc(F)ccc2/C1=C\c1ccc([S+](C)[O-])cc1` (stereo unspecified), the “Bacterial Biotransformation” value was “Compound NOT metabolized”.
With `CCCCCNC(=N)N/N=C/c1c[nH]c2ccc(OC)cc12.O=C(O)/C=C\C(=O)O` [TEGASEROD MALEATE] the “Bacterial Biotransformation” value was “Compound NOT metabolized”.
With `CCOc1ccc(NC(C)=O)cc1` [PHENACETIN] the “Bacterial Biotransformation” value was “Compound NOT metabolized”.

Test: The drug is tested on Bacteroides coprophilus strain: DSM18228 for biotransformation. The drug concentrations were measured before and after a 12-h incubation by liquid-chromatography-coupled mass spectrometry (LC–MS)
Settings: 2 µM
For `CC1=C(CC(=O)O)c2cc(F)ccc2/C1=C\c1ccc([S+](C)[O-])cc1` (stereo unspecified), the “Bacterial Biotransformation” value was “Compound NOT metabolized”.
In the case of `CCCCCNC(=N)N/N=C/c1c[nH]c2ccc(OC)cc12.O=C(O)/C=C\C(=O)O` [TEGASEROD MALEATE], the “Bacterial Biotransformation” value is reported as “Compound NOT metabolized”.
With `CCOc1ccc(NC(C)=O)cc1` [PHENACETIN] the “Bacterial Biotransformation” value was “Compound NOT metabolized”.

Settings: bacteroides thetaiotaomicron, 12 h, 2 µM
Description: The drug is tested on Bacteroides thetaiotaomicron strain: 7330 for biotransformation. The drug concentrations were measured before and after a 12-h incubation by liquid-chromatography-coupled mass spectrometry (LC–MS)
In the case of `CC1=C(CC(=O)O)c2cc(F)ccc2/C1=C\c1ccc([S+](C)[O-])cc1` (stereo unspecified), the “Bacterial Biotransformation” value is reported as “Compound NOT metabolized”.
For `CCCCCNC(=N)N/N=C/c1c[nH]c2ccc(OC)cc12.O=C(O)/C=C\C(=O)O` [TEGASEROD MALEATE], the “Bacterial Biotransformation” value was “Compound NOT metabolized”.
For `CCOc1ccc(NC(C)=O)cc1` [PHENACETIN], the “Bacterial Biotransformation” value was “Compound NOT metabolized”.

Test: The drug is tested on Bacteroides pectinophilus strain: ATCC43243 for biotransformation. The drug concentrations were measured before and after a 12-h incubation by liquid-chromatography-coupled mass spectrometry (LC–MS)
Settings: 2 µM
For `CC1=C(CC(=O)O)c2cc(F)ccc2/C1=C\c1ccc([S+](C)[O-])cc1` (stereo unspecified), the “Bacterial Biotransformation” value was “Compound NOT metabolized”.
For `CCCCCNC(=N)N/N=C/c1c[nH]c2ccc(OC)cc12.O=C(O)/C=C\C(=O)O` [TEGASEROD MALEATE], the “Bacterial Biotransformation” value was “Compound NOT metabolized”.
For `CCOc1ccc(NC(C)=O)cc1` [PHENACETIN], the “Bacterial Biotransformation” value was “Compound NOT metabolized”.

Settings: bacteroides eggerthii, 12 h, 2 µM
Description: The drug is tested on Bacteroides eggerthii strain: DSM20697 for biotransformation. The drug concentrations were measured before and after a 12-h incubation by liquid-chromatography-coupled mass spectrometry (LC–MS)
For `CC1=C(CC(=O)O)c2cc(F)ccc2/C1=C\c1ccc([S+](C)[O-])cc1` (stereo unspecified), the “Bacterial Biotransformation” value was “Compound NOT metabolized”.
With `CCCCCNC(=N)N/N=C/c1c[nH]c2ccc(OC)cc12.O=C(O)/C=C\C(=O)O` [TEGASEROD MALEATE] the “Bacterial Biotransformation” value was “Compound NOT metabolized”.
For `CCOc1ccc(NC(C)=O)cc1` [PHENACETIN], the “Bacterial Biotransformation” value was “Compound NOT metabolized”.

Test: The drug is tested on Bifidobacterium longum subsp. Infantis strain: CCUG52486 for biotransformation. The drug concentrations were measured before and after a 12-h incubation by liquid-chromatography-coupled mass spectrometry (LC–MS)
Settings: 2 µM
With `CC1=C(CC(=O)O)c2cc(F)ccc2/C1=C\c1ccc([S+](C)[O-])cc1` (stereo unspecified) the “Bacterial Biotransformation” value was “Compound NOT metabolized”.
With `CCCCCNC(=N)N/N=C/c1c[nH]c2ccc(OC)cc12.O=C(O)/C=C\C(=O)O` [TEGASEROD MALEATE] the “Bacterial Biotransformation” value was “Compound NOT metabolized”.
In the case of `CCOc1ccc(NC(C)=O)cc1` [PHENACETIN], the “Bacterial Biotransformation” value is reported as “Compound NOT metabolized”.

Settings: bacteroides intestinalis, 12 h, 2 µM
Description: The drug is tested on Bacteroides intestinalis strain: DSM17393 for biotransformation. The drug concentrations were measured before and after a 12-h incubation by liquid-chromatography-coupled mass spectrometry (LC–MS)
For `CC1=C(CC(=O)O)c2cc(F)ccc2/C1=C\c1ccc([S+](C)[O-])cc1` (stereo unspecified), the “Bacterial Biotransformation” value was “Compound NOT metabolized”.
For `CCCCCNC(=N)N/N=C/c1c[nH]c2ccc(OC)cc12.O=C(O)/C=C\C(=O)O` [TEGASEROD MALEATE], the “Bacterial Biotransformation” value was “Compound NOT metabolized”.
With `CCOc1ccc(NC(C)=O)cc1` [PHENACETIN] the “Bacterial Biotransformation” value was “Compound NOT metabolized”.

Test: The drug is tested on Anaerococcus hydrogenalis strain: DSM7454 for biotransformation. The drug concentrations were measured before and after a 12-h incubation by liquid-chromatography-coupled mass spectrometry (LC–MS)
Settings: 2 µM
In the case of `CC1=C(CC(=O)O)c2cc(F)ccc2/C1=C\c1ccc([S+](C)[O-])cc1` (stereo unspecified), the “Bacterial Biotransformation” value is reported as “Compound NOT metabolized”.
For `CCCCCNC(=N)N/N=C/c1c[nH]c2ccc(OC)cc12.O=C(O)/C=C\C(=O)O` [TEGASEROD MALEATE], the “Bacterial Biotransformation” value was “Compound NOT metabolized”.
In the case of `CCOc1ccc(NC(C)=O)cc1` [PHENACETIN], the “Bacterial Biotransformation” value is reported as “Compound NOT metabolized”.

Settings: limosilactobacillus reuteri cf48-3a, 12 h, 2 µM
Description: The drug is tested on Lactobacillus reuteri CF48-3A strain: BEI HM-102 for biotransformation. The drug concentrations were measured before and after a 12-h incubation by liquid-chromatography-coupled mass spectrometry (LC–MS)
In the case of `CC1=C(CC(=O)O)c2cc(F)ccc2/C1=C\c1ccc([S+](C)[O-])cc1` (stereo unspecified), the “Bacterial Biotransformation” value is reported as “Compound NOT metabolized”.
With `CCCCCNC(=N)N/N=C/c1c[nH]c2ccc(OC)cc12.O=C(O)/C=C\C(=O)O` [TEGASEROD MALEATE] the “Bacterial Biotransformation” value was “Compound NOT metabolized”.
In the case of `CCOc1ccc(NC(C)=O)cc1` [PHENACETIN], the “Bacterial Biotransformation” value is reported as “Compound NOT metabolized”.

Test: The drug is tested on Ruminococcus gnavus strain: ATCC29149 for biotransformation. The drug concentrations were measured before and after a 12-h incubation by liquid-chromatography-coupled mass spectrometry (LC–MS)
Settings: mediterraneibacter gnavus, 2 µM
With `CC1=C(CC(=O)O)c2cc(F)ccc2/C1=C\c1ccc([S+](C)[O-])cc1` (stereo unspecified) the “Bacterial Biotransformation” value was “Compound NOT metabolized”.
With `CCCCCNC(=N)N/N=C/c1c[nH]c2ccc(OC)cc12.O=C(O)/C=C\C(=O)O` [TEGASEROD MALEATE] the “Bacterial Biotransformation” value was “Compound NOT metabolized”.
For `CCOc1ccc(NC(C)=O)cc1` [PHENACETIN], the “Bacterial Biotransformation” value was “Compound NOT metabolized”.

Settings: bacteroides stercoris, 12 h, 2 µM
Description: The drug is tested on Bacteroides stercoris strain: ATCC43183 for biotransformation. The drug concentrations were measured before and after a 12-h incubation by liquid-chromatography-coupled mass spectrometry (LC–MS)
For `CC1=C(CC(=O)O)c2cc(F)ccc2/C1=C\c1ccc([S+](C)[O-])cc1` (stereo unspecified), the “Bacterial Biotransformation” value was “Compound NOT metabolized”.
With `CCCCCNC(=N)N/N=C/c1c[nH]c2ccc(OC)cc12.O=C(O)/C=C\C(=O)O` [TEGASEROD MALEATE] the “Bacterial Biotransformation” value was “Compound NOT metabolized”.
For `CCOc1ccc(NC(C)=O)cc1` [PHENACETIN], the “Bacterial Biotransformation” value was “Compound NOT metabolized”.
